Patent publication US11779768B2, “Protein activity modification” (Impulse Dynamics NV, priority 2004, dated 2023)
Where “and” joins values, the source holds several entries; their conditions need not be identical. Equal entries are not always repeated.

Assays:
[1] = test system: dogs with intracoronary microembolization-induced chronic HF; assay: 3 months therapy with beta-blocker alone, beta-blocker combined with CCM, or no therapy in HF dogs: LV EDV, ESV, EF; assay type: in vivo, dog
Method: In a set of experiments, dogs with intracoronary microembolization-induced chronic HF (LV EF 30%-40%) were randomized to 3 months therapy with either BB (beta-blockers) alone (extended release metoprolol succinate, 100 mg once daily), extended release metoprolol succinate (100 mg, once daily) combined with CCM therapy, or to no therapy at all (Control). LV end-diastolic volume (EDV), end-systolic volume (ESV) and EF were measured before randomization (PRE) and after 3 months of therapy (POST). To determine “treatment effect”, the change A between PRE and POST therapy for each group was compared among the 3 study groups.

[2] = test system: phospholamban serine-16; assay: Phosphorylation of PLB at serine-16 in failing LV tissue homogenate with/without protein kinase inhibitor and CCM signal (Western blot); assay type: biochemical, dog
Method: (§1) The tissue homogenate was prepared in the following manner. […] The homogenate was then filtered through 4 layers of cheese cloth. The resulting homogenate was stored in ice and its protein concentration was determined by the Lowry method.
(§2) The CCM signals were delivered to the homogenate as follows. The homogenate was diluted 2 fold in homogenate buffer and subsequently aliquotted 3 ml each in assay tubes. Assay tubes were divided into 2 sets (Set A and Set B), each subset consisting of […]. CCM signals were delivered for 10″, 30″, 1′, 5′, 30′, and 60′ in one of the sets, while the other set served as time control. The reaction was stopped by adding concentrated SDS. Protein assay on all the samples were performed by Lowry method.
(§3) Additional experiments of tissue homogenate were carried out in the presence and absence of protein kinese inhibitors. The homogenate was the same as above, from dogs with heart failure. […] CAS 62996-74-1.

[3] = test system: phospholamban threonin-17; assay: Phosphorylation of PLB at threonine-17 in failing LV tissue homogenate with/without protein kinase inhibitor and CCM signal (Western blot); assay type: biochemical, dog
Method: as §1, §2, §3

[4] = molecular target: protein kinase G; details: advertised; read-out: Inhibits protein kinase G IC50; cited from earlier work
[5] = test system: platelet aggregation; details: advertised; cited from earlier work
[6] = test system: human malignant glioma cell lines; details: advertised; cited from earlier work
[7] = test system: normal cells; details: advertised; cited from earlier work
[8] = 10 sec, Control + PK Inhibitor (no CCM)
[9] = 20 sec, Control + PK Inhibitor (no CCM)
[10] = 30 sec, Control + PK Inhibitor (no CCM)
[11] = CCM signals delivered for 60 sec, PK Inhibitor + CCM

For `COCCc1ccc(OCC(O)CNC(C)C)cc1` (centres unmarked) [BB, metoprolol succinate], the “Treatment effect (Δ PRE to POST) LV EF” value ([1]; BB 100 mg once daily combined with CCM therapy) was 12±1%, the “LV EDV, effect of therapy” value ([1]; BB alone) was “prevented the increase” and the “LV EF, effect of therapy” value ([1]; BB alone) was “significantly increased”. The “LV ESV, effect of therapy” value ([1]; BB alone) was “significantly reduced”, the “Treatment effect (Δ PRE to POST) LV EF” value ([1]; BB alone, 100 mg once daily) was 6±1% and the “LV EDV, effect of therapy” value ([1]; BB combined with CCM) was “prevented the increase”. The “LV EF, effect of therapy” value ([1]; BB combined with CCM) was “significantly increased” and the “LV ESV, effect of therapy” value ([1]; BB combined with CCM) was “significantly reduced”.
For `CN[C@@H]1C[C@H]2O[C@@](C)([C@@H]1OC)n1c3ccccc3c3c4c(c5c6ccccc6n2c5c31)C(=O)NC4` [STAUROSPORIN], the “P-PLB serine-16, single sample” value [2, 8] was 8.0 and 9.0, the “P-PLB serine-16, single sample” value [2, 9] was 12.2 and 14.0 and the “P-PLB serine-16, Av” value [2, 10] was 9.4. The “P-PLB serine-16, single sample” value [2, 10] was 6.8 and 9.7, the “P-PLB serine-16, single sample” value ([2]; CCM signals delivered for 30 sec, PK Inhibitor + CCM) was 14.3 and 13.0 and the “P-PLB serine-16, Av” value [2, 11] was 19.9. The “P-PLB serine-16, single sample” value [2, 11] was 22.7, the “serine-16 PLB phosphorylation response to CCM in presence of kinese inhibitor” value ([2]; HF dog LV homogenate) was “responded close to usual” and the “P-PLB threonin-17, single sample” value [3, 8] was 8.9 and 9.5. For the same molecule, the “P-PLB threonin-17, Av” value [3, 9] was 9.0, the “P-PLB threonin-17, single sample” value [3, 10] was 8.2 and the “P-PLB threonin-17, Av” value ([3]; 60 sec, Control + PK Inhibitor (no CCM)) was 13.9. The “P-PLB threonin-17, single sample” value ([3]; CCM signals delivered for 10 sec, PK Inhibitor + CCM) was 14.6 and 9.9 and 8.7, the “P-PLB threonin-17, single sample” value ([3]; CCM signals delivered for 20 sec, PK Inhibitor + CCM) was 8.3 and 15.0 and the “P-PLB threonin-17, Av” value [3, 11] was 15.0. The “threonin-17 PLB phosphorylation response to CCM in presence of kinese inhibitor” value ([3]; HF dog LV homogenate) was “reduced and delayed response”, the IC50 [4] was 8.5 nM and the “platelet aggregation induced by collagen or ADP” value [5] was “inhibits”. The thrombin-induced platelet aggregation [5] was “no effect”, the “apoptosis in human malignant glioma cell lines” value [6] was “Induces apoptosis” and the “cell cycle of normal cells (G1 checkpoint)” value [7] was “Arrests normal cells at the G1 checkpoint”.
